Data as given in patent US20040138160A1, “Preventive/therapeutic method for cancer” (priority 2001, published 2004).

Key:
[1] = system: HER2 expression human non-parvicellular lung cancer A549 cells; experiment: Anti-tumor effect against HER2 expression tumor in nude mouse: A549; assay type: in vivo; settings: HER2 score 1+, dose 20 mg/kg/day orally, divided into two per day, 14 days
Experimental: Immediately after transplantation and day 7 after the transplantation, estradiol dipropionate (5 mg/kg solution, 50 μL) was intramuscularly administered to the hind leg with the aim of enhancing the survival rate of the tumor. […] HER2 high expression human gastric cancer cells 4-1ST was a in vivo subcultured tumor and seed tumor piece (ca. 50 mm^3) was subcutaneously transplanted into the nude mouse.
(§1) Formula: tumor volume=longer diameter×shorter diameter×shorter diameter×(1/2)

[2] = system: MDA-MB-231; settings: breast, HER2 score 0; dose 20 mg/kg/day orally, divided into two per day, 14 days
Experimental: (§2) An increase in the tumor volume from that before administration to that on the next day of the final administration was compared to that of the control group and an anti-tumor effect was studied. In addition, the tumor volume was calculated from the following equation:
as §1
(§3) A ratio of the value obtained by subtracting a tumor volume on the day of the administration initiation from the tumor volume on the next day of the completion of the administration in the control group, and the value obtained by subtracting the tumor volume on the day of the administration initiation from the tumor volume on the next day of the completion of the administration was determined as a growth rate (T/C (%)).

[3] = system: FGFR; settings: read-out: IC50 (μmol/L) FGFR; NIH3T3 cells, FGF 20 ng/mL; compound 2 hr
Experimental: (§4) For consideration of the action on a receptor-type tyrosine kinase, A-431 cells or NIH3T3 cells were sown in a 24 multi-well plate (2×10^5 cells/well) and cultured overnight in a carbon dioxide gas incubator (5% CO2, 37° C.). The medium was changed to a serum-free medium and the cells were further incubated for one day. […] The culture medium was removed 5 min later and SDS sample buffer was added to give a cell lysate (200 μL). For consideration of the action on a non-receptor type tyrosine kinase, A431 (Jak1), Jurkat (Src) or Namalwa cells (Blk) were sown in a 6-well multi-well plate (5×10^5 cells/well) and cultured overnight in a carbon dioxide gas incubator (5% CO2, 37° C.).

[4] = system: PDGFR; settings: read-out: IC50 (μmol/L) PDGFR; NIH3T3 cells, PDGF 20 ng/mL; compound 2 hr
Experimental: as §4

[5] = system: tyrosine kinase activity other than HER2; settings: read-out: IC50 value for tyrosine kinase activity other than HER2; in every case (EGFR, FGFR, PDGFR, Jak1, Src, blk)
Experimental: as §4

[6] = target: HER2 (Homo sapiens, UniProt P04626); settings: BT-474 tumor in nude mice; 20 mg/kg/day orally 14 days, then 10 mg/kg; tumor sampled four hours later
Chain of HER2 (P04626 23-1255): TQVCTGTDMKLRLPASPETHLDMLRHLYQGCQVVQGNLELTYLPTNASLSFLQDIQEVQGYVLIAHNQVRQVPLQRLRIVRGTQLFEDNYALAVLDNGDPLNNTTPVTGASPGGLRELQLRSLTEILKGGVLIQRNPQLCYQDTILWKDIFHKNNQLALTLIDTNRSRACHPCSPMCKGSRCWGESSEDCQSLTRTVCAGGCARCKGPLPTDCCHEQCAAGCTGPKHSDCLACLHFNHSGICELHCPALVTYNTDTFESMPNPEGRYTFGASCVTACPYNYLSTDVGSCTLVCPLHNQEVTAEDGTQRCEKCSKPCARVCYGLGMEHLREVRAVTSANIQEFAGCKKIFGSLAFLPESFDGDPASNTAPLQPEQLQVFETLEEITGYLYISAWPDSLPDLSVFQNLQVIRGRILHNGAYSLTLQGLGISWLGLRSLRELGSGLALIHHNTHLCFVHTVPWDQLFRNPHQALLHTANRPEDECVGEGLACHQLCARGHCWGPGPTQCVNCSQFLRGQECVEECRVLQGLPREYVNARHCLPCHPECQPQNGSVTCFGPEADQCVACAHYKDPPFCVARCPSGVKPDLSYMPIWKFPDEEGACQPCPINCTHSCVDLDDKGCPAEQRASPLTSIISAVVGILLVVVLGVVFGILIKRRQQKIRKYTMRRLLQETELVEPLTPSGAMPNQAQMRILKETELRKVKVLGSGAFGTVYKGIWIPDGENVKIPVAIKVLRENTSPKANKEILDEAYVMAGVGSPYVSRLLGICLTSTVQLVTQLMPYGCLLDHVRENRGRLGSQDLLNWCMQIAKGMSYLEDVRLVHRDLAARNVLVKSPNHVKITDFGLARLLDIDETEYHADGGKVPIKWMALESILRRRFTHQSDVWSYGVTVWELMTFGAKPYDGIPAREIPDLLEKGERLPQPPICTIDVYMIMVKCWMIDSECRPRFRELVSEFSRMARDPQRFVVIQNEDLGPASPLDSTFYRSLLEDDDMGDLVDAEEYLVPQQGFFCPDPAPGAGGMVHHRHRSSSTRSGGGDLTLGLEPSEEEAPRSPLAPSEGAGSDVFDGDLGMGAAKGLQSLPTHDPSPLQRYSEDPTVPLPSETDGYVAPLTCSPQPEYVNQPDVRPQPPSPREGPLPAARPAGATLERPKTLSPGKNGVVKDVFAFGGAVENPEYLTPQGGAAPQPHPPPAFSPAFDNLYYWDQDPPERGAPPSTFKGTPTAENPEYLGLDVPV
Experimental: Four hours later, the tumor was sampled and a tumor homogenate was prepared.

[7] = target: blk (Homo sapiens, UniProt P51451); experiment: cell-based
Chain of blk (P51451 whole entry): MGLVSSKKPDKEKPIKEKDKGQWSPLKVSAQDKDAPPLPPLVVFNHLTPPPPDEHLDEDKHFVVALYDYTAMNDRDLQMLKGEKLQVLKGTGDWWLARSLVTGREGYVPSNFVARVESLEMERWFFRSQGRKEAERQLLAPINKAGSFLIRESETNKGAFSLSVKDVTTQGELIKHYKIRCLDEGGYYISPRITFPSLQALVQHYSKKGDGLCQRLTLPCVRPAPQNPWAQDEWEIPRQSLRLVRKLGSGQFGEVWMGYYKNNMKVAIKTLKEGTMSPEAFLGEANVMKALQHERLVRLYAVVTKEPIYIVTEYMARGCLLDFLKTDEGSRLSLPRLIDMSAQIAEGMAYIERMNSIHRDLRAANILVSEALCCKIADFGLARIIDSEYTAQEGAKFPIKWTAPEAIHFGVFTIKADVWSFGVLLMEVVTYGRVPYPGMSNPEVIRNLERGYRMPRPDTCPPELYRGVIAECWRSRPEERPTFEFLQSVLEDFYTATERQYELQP
Experimental: as §4

[8] = target: EGFR (Homo sapiens, UniProt P00533); experiment: cell-based
Chain of EGFR (P00533 25-1210): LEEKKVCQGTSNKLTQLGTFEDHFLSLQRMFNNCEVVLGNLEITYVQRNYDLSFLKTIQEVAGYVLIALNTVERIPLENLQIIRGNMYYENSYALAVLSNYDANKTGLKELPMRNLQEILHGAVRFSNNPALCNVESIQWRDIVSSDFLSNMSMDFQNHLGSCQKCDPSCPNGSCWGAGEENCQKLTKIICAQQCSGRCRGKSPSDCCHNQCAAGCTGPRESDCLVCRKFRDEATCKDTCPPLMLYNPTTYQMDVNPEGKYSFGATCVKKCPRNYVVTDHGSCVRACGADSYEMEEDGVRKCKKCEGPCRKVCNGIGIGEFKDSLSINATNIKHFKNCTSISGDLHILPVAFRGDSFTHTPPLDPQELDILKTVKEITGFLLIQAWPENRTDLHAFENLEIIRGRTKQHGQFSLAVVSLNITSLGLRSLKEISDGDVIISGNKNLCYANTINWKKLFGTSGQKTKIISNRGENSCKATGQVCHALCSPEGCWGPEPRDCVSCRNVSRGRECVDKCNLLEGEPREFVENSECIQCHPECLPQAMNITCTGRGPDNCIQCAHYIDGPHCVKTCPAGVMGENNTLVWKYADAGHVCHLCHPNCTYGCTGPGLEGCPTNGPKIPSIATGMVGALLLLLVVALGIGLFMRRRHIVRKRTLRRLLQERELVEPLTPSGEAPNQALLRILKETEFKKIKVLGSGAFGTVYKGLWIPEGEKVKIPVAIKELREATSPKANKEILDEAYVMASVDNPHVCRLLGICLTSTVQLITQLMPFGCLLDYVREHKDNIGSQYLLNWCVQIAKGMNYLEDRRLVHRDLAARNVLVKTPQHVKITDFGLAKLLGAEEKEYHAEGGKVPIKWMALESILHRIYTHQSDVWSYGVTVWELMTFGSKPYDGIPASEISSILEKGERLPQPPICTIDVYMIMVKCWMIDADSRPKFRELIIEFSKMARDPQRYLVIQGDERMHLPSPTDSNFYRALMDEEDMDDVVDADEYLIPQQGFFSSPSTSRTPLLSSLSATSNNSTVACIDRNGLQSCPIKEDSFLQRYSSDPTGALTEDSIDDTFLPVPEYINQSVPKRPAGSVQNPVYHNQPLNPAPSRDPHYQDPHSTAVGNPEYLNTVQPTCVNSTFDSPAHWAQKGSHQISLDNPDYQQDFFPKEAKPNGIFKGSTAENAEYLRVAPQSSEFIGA
Experimental: as §4

[9] = target: Jak1 (Homo sapiens, UniProt P23458); experiment: cell-based
Chain of Jak1 (P23458 whole entry): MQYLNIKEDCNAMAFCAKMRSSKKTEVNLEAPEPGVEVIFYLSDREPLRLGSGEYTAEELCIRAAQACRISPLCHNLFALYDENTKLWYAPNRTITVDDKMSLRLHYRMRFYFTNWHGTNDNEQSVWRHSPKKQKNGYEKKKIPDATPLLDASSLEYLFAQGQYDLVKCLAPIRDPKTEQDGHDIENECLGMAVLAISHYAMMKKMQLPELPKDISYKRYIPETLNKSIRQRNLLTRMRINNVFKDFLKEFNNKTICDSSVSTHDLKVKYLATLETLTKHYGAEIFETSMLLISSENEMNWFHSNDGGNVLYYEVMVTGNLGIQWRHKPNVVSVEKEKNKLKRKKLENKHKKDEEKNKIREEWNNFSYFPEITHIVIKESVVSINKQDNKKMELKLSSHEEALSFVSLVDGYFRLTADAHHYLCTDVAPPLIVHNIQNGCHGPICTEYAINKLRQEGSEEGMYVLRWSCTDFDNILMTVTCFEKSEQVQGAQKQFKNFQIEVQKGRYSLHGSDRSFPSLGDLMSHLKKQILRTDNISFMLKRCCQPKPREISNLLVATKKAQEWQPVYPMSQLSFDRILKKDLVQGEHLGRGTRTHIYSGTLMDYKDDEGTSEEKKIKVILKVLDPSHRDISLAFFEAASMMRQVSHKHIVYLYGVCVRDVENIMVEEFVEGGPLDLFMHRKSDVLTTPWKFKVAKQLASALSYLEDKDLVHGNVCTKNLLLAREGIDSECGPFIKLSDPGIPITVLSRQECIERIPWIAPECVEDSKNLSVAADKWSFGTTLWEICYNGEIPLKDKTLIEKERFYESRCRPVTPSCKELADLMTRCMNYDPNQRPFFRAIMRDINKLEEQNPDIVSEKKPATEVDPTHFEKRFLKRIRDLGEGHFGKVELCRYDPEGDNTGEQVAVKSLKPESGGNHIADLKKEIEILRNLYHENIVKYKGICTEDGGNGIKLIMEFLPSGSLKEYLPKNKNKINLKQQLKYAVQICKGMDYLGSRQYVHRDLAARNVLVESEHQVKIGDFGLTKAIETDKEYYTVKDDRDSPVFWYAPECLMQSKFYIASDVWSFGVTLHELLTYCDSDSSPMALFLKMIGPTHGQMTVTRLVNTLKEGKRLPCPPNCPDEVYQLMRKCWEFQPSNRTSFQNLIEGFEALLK
Experimental: as §4

[10] = system: HER2 high expression human breast cancer cell BT-474; experiment: Anti-tumor effect, combined use (BT-474 cancer-bearing nude mice); assay type: in vivo, mouse
Description: Formula: Tumor volume=longer diameter×shorter diameter×shorter diameter×(1/2)

[11] = system: Akt; experiment: cells; settings: Homo sapiens, BT-474, 2 h, read-out: inhibition of activation of Akt (IC50 value)
[12] = system: HER2 non-expression cells (Ma-1); settings: cultured 3 days, cells counted
Experimental: (§5) 1) Cell growth inhibitory action; Each cell line was sown in a 24-well-multi-well plate (5×10^4 cells/well) and cultured overnight in a carbon dioxide gas incubator (5% CO2, 37° C.).

[13] = system: HER2/EGF-R co-expression cells (A549); settings: cultured 3 days, cells counted
Experimental: as §5

[14] = system: HER2 expression cells (Ma-46); settings: cultured 3 days, cells counted
Experimental: as §5

[15] = system: HER2 high expression human breast cancer cells BT-474; settings: HER2 score 3+, dose 20 mg/kg/day orally, divided into two per day, 14 days
Experimental: (§6) Immediately after transplantation and day 7 after the transplantation, estradiol dipropionate (5 mg/kg solution, 50 μL) was intramuscularly administered to the hind leg with the aim of enhancing the survival rate of the tumor. HER2 expression human non-parvicellular lung cancer A549 cells were suspended in Matrigel solution and 5,000,000 cells were subcutaneously transplanted into the chest of female BALB/c nude mouse (6 weeks of age). HER2 expression human kidney cancer ACHN cells (2,000,000 cells) were subcutaneously transplanted into the chest of nude mouse. HER2 high expression human gastric cancer cells 4-1ST was a in vivo subcultured tumor and seed tumor piece (ca. 50 mm^3) was subcutaneously transplanted into the nude mouse.
as §2, §1, §3

[16] = system: HER2 expression human kidney cancer ACHN cells; settings: renal, HER2 score 1+; dose 20 mg/kg/day orally, divided into two per day, 14 days
Experimental: as §6, §2, §1, §3

[17] = system: HER2 high expression human gastric cancer cells 4-1ST; settings: HER2 score 3+, dose 15 mg/kg/day orally, divided into two per day, 14 days
Experimental: as §6, §2, §1, §3

[18] = system: HER2 high expression human breast cancer cells BT-474; settings: 1 μmol/L, cultured ~5 days
Experimental: After the culture, the culture medium was removed and a cell suspension was prepared by a trypsin treatment and the cells were fixed with 70% ethanol. The DNA of the cells was stained with propidium iodide and the DNA amount was measured by a flow cytometer. The cells with a decreased amount of DNA are apoptotic (cell death) cells.

Compound: FC(F)(F)c1ccc(/C=C/c2nc(COc3ccc(CCCCn4ccnn4)cc3)co2)cc1 [Compound B4, 1-(4-{4-[(2-{(E)-2-[4-(trifluoromethyl)phenyl]ethenyl}-1,3-oxazol-4-yl)methoxy]phenyl}butyl)-1H-1,2,3-triazole]
- Compound B4 T/C (%), A549 [1]: 22%
- Compound B4 T/C (%), MDA-MB-231 [2]: 87%
- IC50 [3]: > 25 µmol/L
- IC50 [4]: > 25 µmol/L
- IC50 [5]: > 25 µM
- intra-tumor HER2 phosphorylation (per tumor weight), % of the control group [6]: 13%
- IC50 [7]: > 25 µM
- IC50 [8]: > 25 µM
- IC50 [9]: > 25 µM
- growth rate T/C (%) ([10]; compound B4 20 mg/kg/day orally, divided into two per day, 14 days, trastuzumab 10 mg/kg intraperitoneally twice a week, 2 weeks, or both): −18%
- cases with significant decrease in the tumor volume ([10]; same regimens as T/C): 5 cases out of 5 cases
- decrease in the tumor volume (% reduction) ([10]; same regimens as T/C): 13-30%
- IC50 [11]: 0.0019 µM
- cell growth inhibitory action on HER2 non-expression cells (Ma-1) [12]: did not show a cell growth inhibitory action
- cell growth inhibitory action on HER2/EGF-R co-expression cells (A549) [13]: strong cell growth inhibitory action
- cell growth inhibitory action on HER2 expression cells (Ma-46) [14]: strong cell growth inhibitory action
- Compound B4 T/C (%), BT-474 [15]: −18%
- Compound B4 T/C (%), ACHN [16]: −16%
- Compound B4 T/C (%), 4-1ST [17]: 4%
- cell death induction [18]: induced cell death
